The assay concerns the target hPAD4 enzyme (Homo sapiens (Human), UniProt Q9UM07). The experiment in a line: RFMS2 assay (RapidFire mass spectrometry, TSTGGRQGSHH peptide substrate). Particulars: 35 nM recombinant human PAD4, 500 μM TSTGGRQGSHH peptide, 30 minutes at room temperature; read-out: RFMS 2 IC50. Type of assay: biochemical. How it is done:
Stock compounds were dissolved and stored in 100% DMSO. Compound solutions were prepared via serial dilution at 3-fold intervals in DMSO with top compound concentration at 20 μM in each assay. 0.25 μl of compound solution was transferred from the compound plate to the assay plate by using an acoustic dispenser.
• Total reaction volume: 25 μl • Assay buffer: […] pH 7.4, 200 mM NaCl, 2 mM CaCl2, 5 mM DTT • 35 nM recombinant human PAD4 • 500 μM TSTGGRQGSHH peptide • 1.2% DMSO • Stop solution: 10% formic acid
Reaction mixtures were incubated at room temperature for 30 minutes. 10 μl each of the reaction mixtures was then mixed with 40 μl of 10% formic acid in a microtiter plate. The plate was frozen at −80° C. before shipping out on dry ice for RapidFire mass spectroscopy analysis.
Thawed samples were loaded onto the Rapid Fire 300 system (Agilent) wherein they were first sipped for 250 ms and then loaded onto a Agilent “C” (C18) cartridge using a mobile phase of water containing 0.09% formic acid/0.01% trifluoroacetic acid for 3000 ms desalting flowing at a rate of 1.5 ml/min. Once the samples were loaded and washed, a mobile phase of acetonitrile containing 0.09% formic acid/0.01% trifluoroacetic acid was used to elute the samples directly onto a Sciex API4000 triple quadrupole mass spectrometer for 3000 ms at a flow rate of 1.25 ml/min.
MRM transitions for substrate and product were monitored in positive ESI mode at m/z=562.3/969.7 and m/z=562.8/541.3 respectively. The dwell time for each transition was set at 100 ms, and the ESI voltage was used at 5500 with a source temperature of 650° C. Extracted ion peaks for each transition were integrated using the Rapid Fire Integrator software.
Compounds having an activity designated as “A” provided an IC50≤10 nM; compounds having an activity designated as “B” provided an IC50 11-100 nM; compounds having an activity designated as “C” provided an IC50 101-500 nM; compounds having an activity designated as “D” provided an IC50 501-1000 nM; compounds having an activity designated as “E” provided an IC50>1000 nM.
hPAD4 enzyme, sequence (Q9UM07 whole entry): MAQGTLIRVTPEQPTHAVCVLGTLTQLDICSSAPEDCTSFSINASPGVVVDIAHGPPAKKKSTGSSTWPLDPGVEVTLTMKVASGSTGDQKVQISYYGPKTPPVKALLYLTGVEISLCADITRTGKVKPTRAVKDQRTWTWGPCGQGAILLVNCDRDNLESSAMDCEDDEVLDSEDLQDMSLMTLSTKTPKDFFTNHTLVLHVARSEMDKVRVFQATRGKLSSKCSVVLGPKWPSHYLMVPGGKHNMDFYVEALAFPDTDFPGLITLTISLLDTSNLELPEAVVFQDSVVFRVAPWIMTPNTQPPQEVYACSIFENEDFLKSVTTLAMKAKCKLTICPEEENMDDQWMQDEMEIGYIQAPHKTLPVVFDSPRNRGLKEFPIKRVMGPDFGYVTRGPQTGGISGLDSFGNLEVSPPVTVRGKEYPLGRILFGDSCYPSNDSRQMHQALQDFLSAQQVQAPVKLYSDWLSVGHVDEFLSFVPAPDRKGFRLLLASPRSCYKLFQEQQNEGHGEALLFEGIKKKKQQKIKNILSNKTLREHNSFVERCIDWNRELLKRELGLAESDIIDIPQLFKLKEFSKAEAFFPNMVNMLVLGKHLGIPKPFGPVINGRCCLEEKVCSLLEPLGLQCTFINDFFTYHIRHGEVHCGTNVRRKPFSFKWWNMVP
Usually IC50 stands for the concentration at which inhibition is half-maximal. As to `Cn1c(-c2cc3cccc(OCCN4CCOCC4)c3n2CC2CC2)nc2cc3c(cc21)CCN(C[C@H](N)CF)C3=O` [Example 158, (S)-6-(2-amino-3-fluoropropyl)-2-(1-(cyclopropyl-methyl)-7-(2-morpholinoethoxy)-1H-indol-2-yl)-1-methyl-1,6,7,8-tetrahydro-5H-imidazo[4,5-g] isoquinolin-5-one], the IC50 was 501 to 1000 nM.
For `Cn1c(-c2cc3cccc(OC[C@@H](O)C(F)(F)F)c3n2CC2CC2)nc2cc3c(cc21)CCN(C[C@H](N)CF)C3=O` [Example 215, 6-((S)-2-amino-3-fluoropropyl)-2-(1-(cyclopropylmethyl)-7-((R)-3,3,3-trifluoro-2-hydroxypropoxy)-1H-indol-2-yl)-1-methyl-1,6,7,8-tetrahydro-5H-imidazo[4,5-g]isoquinolin-5-one] the value was 101 to 500 nM.
Next, `CN(C)c1cccc2cc(-c3nc4cc5c(cc4n3C)CCN(C[C@H](N)CF)C5=O)n(CC3CC3)c12` [Example 69, (S)-6-(2-amino-3-fluoropropyl)-2-(1-(cyclopropylmethyl)-7-(dimethylamino)-1H-indol-2-yl)-1-methyl-1,6,7,8-tetrahydro-5H-imidazo[4,5-g]isoquinolin-5-one]: greater than 1000 nM; `Cn1c(-c2cc3cccc(OC[C@H]4CNC(=O)O4)c3n2CC2CC2)nc2cc3c(cc21)CCN(C[C@H](N)CF)C3=O` [Example 168, (R)-5-(((2-(6-((S)-2-amino-3-fluoropropyl)-1-methyl-5-oxo-5,6,7,8-tetrahydro-1H-imidazo [4,5-g]isoquinolin-2-yl)-1-(cyclopropylmethyl)-1H-indol-7-yl)oxy)methyl)oxazolidin-2-one]: 11 to 100 nM; `Cn1c(-c2cc3cccc(OCc4ccon4)c3n2CC2CC2)nc2cc3c(cc21)CCN(C[C@H](N)CF)C3=O` [Example 167, (S)-6-(2-amino-3-fluoropropyl)-2-(1-(cyclopropylmethyl)-7-(isoxazol-3-ylmethoxy)-1H-indol-2-yl)-1-methyl-1,6,7,8-tetrahydro-5H-imidazo[4,5-g]isoquinolin-5-one]: 101 to 500 nM.
On to `Cn1c(-c2cc3cccc(C#N)c3n2Cc2ccno2)nc2cc3c(cc21)CCN(C[C@H](N)CF)C3=O` [Example 148, (S)-2-(6-(2-amino-3-fluoropropyl)-1-methyl-5-oxo-5,6,7,8-tetrahydro-1H-imidazo[4,5-g]isoquinolin-2-yl)-1-(isoxazol-5-ylmethyl)-1H-indole-7-carbonitrile], for which the half-maximal inhibitory concentration (IC50) was 501 to 1000 nM.
Next, `Cn1c(-c2cc3cccc(OCc4cn[nH]c4)c3n2CC2CC2)nc2cc3c(cc21)CCN(C[C@H](N)CF)C3=O` [Example 193, (S)-2-(7-((1H-pyrazol-4-yl)methoxy)-1-(cyclopropylmethyl)-1H-indol-2-yl)-6-(2-amino-3-fluoropropyl)-1-methyl-1,6,7,8-tetrahydro-5H-imidazo[4,5-g]isoquinolin-5-one]: 11 to 100 nM.
With `C[C@@H](N)CN1CCc2cc3c(cc2C1=O)nc(-c1cc2ccccc2n1CC(C)(C)O)n3C` [Example 92, (R)-6-(2-aminopropyl)-2-(1-(2-hydroxy-2-methylpropyl)-1H-indol-2-yl)-1-methyl-1,6,7,8-tetrahydro-5H-imidazo[4,5-g]isoquinolin-5-one], the IC50 was greater than 1000 nM.
For `COc1cccc2cc(-c3nc4cc5c(cc4n3C)CCN(C[C@H](N)CF)C5=O)n(Cc3cn(C)cn3)c12` [Example 114, (S)-6-(2-amino-3-fluoropropyl)-2-(7-methoxy-1-((1-methyl-1H-imidazol-4-yl)methyl)-1H-indol-2-yl)-1-methyl-1,6,7,8-tetrahydro-5H-imidazo[4,5-g]isoquinolin-5-one] the value was 501 to 1000 nM; for `CCn1c(-c2nc3cc4c(cc3n2C)CCN(C[C@@H](C)N)C4=O)cc2cccnc21` [Example 79, (R)-6-(2-aminopropyl)-2-(1-ethyl-1H-pyrrolo[2,3-b]pyridin-2-yl)-1-methyl-1,6,7,8-tetrahydro-5H-imidazo[4,5-g]isoquinolin-5-one], greater than 1000 nM; for `Cn1c(-c2cc3cccc(OC[C@@H]4CCC(=O)N4)c3n2CC2CC2)nc2cc3c(cc21)CCN(C[C@H](N)CF)C3=O` [Example 156, 6-((S)-2-amino-3-fluoropropyl)-2-(1-(cyclopropyl-methyl)-7-(((S)-5-oxopyrrolidin-2-yl)methoxy)-1H-indol-2-yl)-1-methyl-1,6,7,8-tetrahydro-5H-imidazo [4,5-g]isoquinolin-5-one], 101 to 500 nM.
For `CN[C@H](C)CN1CCc2cc3c(cc2C1=O)nc(-c1cc2cccc(OC)c2n1CC1CC1)n3C` [Example 37, (R)-2-(1-(cyclopropylmethyl)-7-methoxy-1H-indol-2-yl)-1-methyl-6-(2-(methylamino)propyl)-1,6,7,8-tetrahydro-5H-imidazo[4,5-g]isoquinolin-5-one] the value was 101 to 500 nM.
Next, `COc1cccc2cc(-c3nc4cc5c(cc4n3C)CCN(C[C@H](N)CF)C5=O)n(Cc3ccns3)c12` [Example 118, (S)-6-(2-amino-3-fluoropropyl)-2-(1-(isothiazol-5-ylmethyl)-7-methoxy-1H-indol-2-yl)-1-methyl-1,6,7,8-tetrahydro-5H-imidazo[4,5-g]isoquinolin-5-one]: 11 to 100 nM; `Cn1c(-c2cc3cccc(OCCO)c3n2Cc2ccno2)nc2cc3c(cc21)CCN(C[C@H](N)CF)C3=O` [Example 218, (S)-6-(2-amino-3-fluoropropyl)-2-(7-(2-hydroxyethoxy)-1-(isoxazol-5-ylmethyl)-1H-indol-2-yl)-1-methyl-1,6,7,8-tetrahydro-5H-imidazo[4,5-g]isoquinolin-5-one]: 101 to 500 nM.
With `Cc1ncn(CCOc2cccc3cc(-c4nc5cc6c(cc5n4C)CCN(C[C@H](N)CF)C6=O)n(CC4CC4)c23)n1` [Example 164, (S)-6-(2-amino-3-fluoropropyl)-2-(1-(cyclopropyl-methyl)-7-(2-(3-methyl-1H-1,2,4-triazol-1-yl)ethoxy)-1H-indol-2-yl)-1-methyl-1,6,7,8-tetrahydro-5H-imidazo[4,5-g]isoquinolin-5-one], the IC50 was in the range of 11 to 100 nM.
Next, `COc1cccc2cc(-c3nc4cc5c(cc4n3C)CCN(C[C@H](N)CF)C5=O)n(C(C)C)c12` [Example 109]: greater than 1000 nM.
For the compound `COc1cccc2cc(-c3nc4cc5c(cc4n3C)CCN(C[C@H](N)CF)C5=O)n(Cc3cc[nH]n3)c12` [Example 115, (S)-2-(1-((1H-pyrazol-3-yl)methyl)-7-methoxy-1H-indol-2-yl)-6-(2-amino-3-fluoropropyl)-1-methyl-1,6,7,8-tetrahydro-5H-imidazo[4,5-g]isoquinolin-5-one], the IC50 fell in the range of 101 to 500 nM.
Next, `COc1cccc2cc(-c3nc4cc5c(cc4n3C)CCN(C[C@H](N)CF)C5=O)n(CC(C)OC)c12` (single isomer, unassigned) [Example 130]: 101 to 500 nM; `CCc1ccc2cc(-c3nc4cc5c(cc4n3C)CCN(C[C@@H](C)N)C5=O)n(CC3CC3)c2c1` [Example 39, (R)-6-(2-aminopropyl)-2-(1-(cyclopropylmethyl)-6-ethyl-1H-indol-2-yl)-1-methyl-1,6,7,8-tetrahydro-5H-imidazo[4,5-g]isoquinolin-5-one]: 101 to 500 nM; `CN(C)C(=O)c1ccc2cc(-c3nc4cc5c(cc4n3C)CCN(C[C@H](N)CF)C5=O)n(CC3CC3)c2n1` [Example 64, (S)-2-(6-(2-amino-3-fluoropropyl)-1-methyl-5-oxo-5,6,7,8-tetrahydro-1H-imidazo[4,5-g]isoquinolin-2-yl)-1-(cyclopropylmethyl)-N,N-dimethyl-1H-pyrrolo[2,3-b]pyridine-6-carboxamide]: 501 to 1000 nM.
Next, `Cc1c(-c2nc3cc4c(cc3n2C)CCN(C[C@@H](C)N)C4=O)n(CC2CC2)c2ccccc12` [Example 23, (R)-6-(2-aminopropyl)-2-(1-(cyclopropylmethyl)-3-methyl-1H-indol-2-yl)-1-methyl-1,6,7,8-tetrahydro-5H-imidazo[4,5-g]isoquinolin-5-one]: greater than 1000 nM; `Cn1c(-c2cc3cccc(OC[C@H]4COCCN4)c3n2CC2CC2)nc2cc3c(cc21)CCN(C[C@H](N)CF)C3=O` [Example 188, 6-((S)-2-amino-3-fluoropropyl)-2-(1-(cyclopropylmethyl)-7-(((R)-morpholin-3-yl)methoxy)-1H-indol-2-yl)-1-methyl-1,6,7,8-tetrahydro-5H-imidazo[4,5-g]isoquinolin-5-one]: 501 to 1000 nM.
Next, `Cn1c(-c2cc3cccc(OCC(C)(C)O)c3n2CC2CC2)nc2cc3c(cc21)CCN(C[C@H](N)CF)C3=O` [Example 214, (S)-6-(2-amino-3-fluoropropyl)-2-(1-(cyclopropylmethyl)-7-(2-hydroxy-2-methylpropoxy)-1H-indol-2-yl)-1-methyl-1,6,7,8-tetrahydro-5H-imidazo[4,5-g]isoquinolin-5-one]: 501 to 1000 nM.

For the origin of these results see patent US20250346592A1 (Celgene Corporation, priority 2022, published 2025).
